Assay results taken from US20110059482A1, “Sampling Kit” (priority 2008, published 2011).

Experiments:
MSSA = details: according to the referens group for questions related to antibiotic (RAF); cited from earlier work
[1] = Storage stability / shelf life of antibiotics, tablet and Herogel components; type: physicochemical; details: in liquid form, at about 8° C. (refrigerator)
Method: Background: Herogel is a selective growth medium comprising aztreonam and colistin to inhibit the growth of Enterobacteriaceae. Cefoxitin is added to the medium in order to inhibit the growth of MSSA (Methicillin Sensitive Staphylococcus Aureus). Cefoxitin has a short shelf life if it is added to the medium upon manufacturing of the medium and together with other antibiotics. Tests performed at Karolinska University Hospital Laboratory have shown that the activity of cefoxitin in liquid form is reduced after 14 days at about 8° C. (i.e. in a refrigerator) and that aztreonam and colistin if they are added to the growth medium are active for at least 4 months if stored at a temperature of about 8° C. (i.e. in a refrigerator). In order to prolong the shelf life of the Herogel, cefoxitin is incorporated in the tablet in Batch 1. The hypothesis is that the shelf life of the herogel will be prolonged if the tablet is added immediately after the sampling. The shelf life of the tablet is estimated to about 12 months in room temperature. The other components of the Herogel medium have a documented shelf life of at least 6 months upon storage in a refrigerator.

- storage time after which the activity is reduced [1]: 14 days
Structure (SMILES): CO[C@@]1(NC(=O)Cc2cccs2)C(=O)N2C(C(=O)O)=C(COC(N)=O)CS[C@@H]21 [cefoxitin]
- minimal inhibitory concentration (MIC) for MSSA (MSSA): 4 µg/mL
